Here are results for twelve compounds from patent US10556888B2, “Pyrazole compounds or salts thereof, preparation methods therefor, herbicidal compositions and use thereof” (QINGDAO KINGAGROOT CHEMICAL COMPOUNDS CO., LTD, priority 2015, dated 2020).

Structures are written as SMILES.

Data set [1] deals with Monocotyledonous and dicotyledonous weed. The data set can be described thus: Post-emergence test experiment, weed control effect (Table 2). Format: in vivo. Also noted: key to weed control effect, Setaria viridis (level) / weed control effect, Rorippa indica (level) / weed control effect, Abutilon theophrasti (level) / weed control effect, Echinochloa crus-galli (level) / weed control effect, Digitaria sanguinalis (level): Level 10: completely dead; Level 9: above 90% growth inhibition rate; Level 8: above 80% growth inhibition rate; Level 7: above 70% growth inhibition rate; Level 6: above 60% growth inhibition rate; Level 5: above 50% growth inhibition rate; Level 4: above 30% growth inhibition rate; Level 3: above 20% growth inhibition rate; Level 2: above 10% growth inhibition rate; Level 1: above 1-10% growth inhibition rate; Level 0: no effect. The conditions noted are these: 3 weeks after spraying, greenhouse. The method, boiled down: (§1)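 Weed and crop seeds (wheat, corn, rice, soybean, cotton, oilseed, millet, sorghum) grown in soil in greenhouse; sprayed at 2-3 leaf stage, 2-3 weeks after sowing, with compound in acetone/Tween 80/water. Effects assessed after 3 weeks further greenhouse culture.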

Data set [2] deals with main crop (wheat, corn, rice, soybean, cotton, oilseed, millet and sorghum). The data set can be described thus: Post-emergence test experiment, main crops (Table 2). Format: in vivo. The conditions noted are these: 3 weeks after spraying, greenhouse. Also noted: key: Level 10: completely dead; Level 9: above 90% growth inhibition rate; Level 8: above 80% growth inhibition rate; Level 7: above 70% growth inhibition rate; Level 6: above 60% growth inhibition rate; Level 5: above 50% growth inhibition rate; Level 4: above 30% growth inhibition rate; Level 3: above 20% growth inhibition rate; Level 2: above 10% growth inhibition rate; Level 1: above 1-10% growth inhibition rate; Level 0: no effect. The method, boiled down: as §1

As for `CCCCOCc1c(S(C)(=O)=O)ccc(C(=O)c2c(C)nn(C)c2OC(=O)c2cn(C)nc2C)c1Cl` [Compound 34], in data set [1] (60 g/ha), the “weed control effect, Abutilon theophrasti (level)” value was 10; the “weed control effect, Bidens pilosa (level)” value is given as 8 (Level 8: above 80% growth inhibition rate); the “weed control effect, Digitaria sanguinalis (level)” value was 10; the “weed control effect, Echinochloa crus-galli (level)” value amounted to 10. For the same compound, in data set [1] (60 g/ha), the “weed control effect, Rorippa indica (level)” value was 10 and the “weed control effect, Setaria viridis (level)” value is given as 8 (Level 8: above 80% growth inhibition rate). Further, in data set [2] (60 g/ha), the “effect on crop, corn (level)” value is recorded as 0; the “effect on crop, rice (level)” value was 1 (Level 1: above 1-10% growth inhibition rate); the “effect on crop, wheat (level)” value turned out to be 0.

As for `Cc1nn(C)cc1C(=O)Oc1c(C(=O)c2ccc(S(C)(=O)=O)c(COCC(F)(F)C(F)F)c2Cl)c(C)nn1C` [Compound 35], in data set [1] (30 g/ha), the “weed control effect, Abutilon theophrasti (level)” value is recorded as 7 (Level 7: above 70% growth inhibition rate); the “weed control effect, Bidens pilosa (level)” value was 7 (Level 7: above 70% growth inhibition rate); the “weed control effect, Digitaria sanguinalis (level)” value is listed as 7 (Level 7: above 70% growth inhibition rate); the “weed control effect, Echinochloa crus-galli (level)” value stood at 10. For the same compound, in data set [1] (30 g/ha), the “weed control effect, Rorippa indica (level)” value is given as 5 (Level 5: above 50% growth inhibition rate) and the “weed control effect, Setaria viridis (level)” value is 6 (Level 6: above 60% growth inhibition rate). For the same compound, in data set [2] (30 g/ha), the “effect on crop, corn (level)” value is recorded as 1 (Level 1: above 1-10% growth inhibition rate); the “effect on crop, rice (level)” value is recorded as 5 (Level 5: above 50% growth inhibition rate); the “effect on crop, wheat (level)” value was 0.

In the case of `COCCCOCc1c(S(C)(=O)=O)ccc(C(=O)c2c(C)nn(C)c2OC(=O)c2cn(C)nc2C)c1Cl` [Compound 37], in data set [1] (60 g/ha), the “weed control effect, Abutilon theophrasti (level)” value came to 10; the “weed control effect, Bidens pilosa (level)” value was 8 (Level 8: above 80% growth inhibition rate); the “weed control effect, Digitaria sanguinalis (level)” value worked out at 10; the “weed control effect, Echinochloa crus-galli (level)” value is listed as 9 (Level 9: above 90% growth inhibition rate). Moreover, in data set [1] (60 g/ha), the “weed control effect, Rorippa indica (level)” value turned out to be 10 and the “weed control effect, Setaria viridis (level)” value was 5 (Level 5: above 50% growth inhibition rate). Further, in data set [2] (60 g/ha), the “effect on crop, corn (level)” value was 0; the “effect on crop, rice (level)” value is given as 1 (Level 1: above 1-10% growth inhibition rate); the “effect on crop, wheat (level)” value came out at 0.

Turning to `CC=CCOCc1c(S(C)(=O)=O)ccc(C(=O)c2c(C)nn(C)c2OC(=O)c2cn(C)nc2C)c1Cl` [Compound 38], in data set [1] (60 g/ha), the “weed control effect, Abutilon theophrasti (level)” value is reported as 10; the “weed control effect, Bidens pilosa (level)” value was 8 (Level 8: above 80% growth inhibition rate); the “weed control effect, Digitaria sanguinalis (level)” value is 8 (Level 8: above 80% growth inhibition rate); the “weed control effect, Echinochloa crus-galli (level)” value is given as 8 (Level 8: above 80% growth inhibition rate). Besides, in data set [1] (60 g/ha), the “weed control effect, Rorippa indica (level)” value worked out at 10 and the “weed control effect, Setaria viridis (level)” value came to 10. In data set [2] (60 g/ha), the “effect on crop, corn (level)” value came out at 0; the “effect on crop, rice (level)” value was 1 (Level 1: above 1-10% growth inhibition rate); the “effect on crop, wheat (level)” value was 0.

Take `CCOCCOCc1c(S(C)(=O)=O)ccc(C(=O)c2c(C)nn(C)c2OC(=O)c2cn(C)nc2C)c1Cl` [Compound 39]: in data set [1] (60 g/ha), the “weed control effect, Abutilon theophrasti (level)” value stood at 10; the “weed control effect, Bidens pilosa (level)” value was 8 (Level 8: above 80% growth inhibition rate); the “weed control effect, Digitaria sanguinalis (level)” value is 9 (Level 9: above 90% growth inhibition rate); the “weed control effect, Echinochloa crus-galli (level)” value is 10. In data set [1] (60 g/ha), the “weed control effect, Rorippa indica (level)” value was 10 and the “weed control effect, Setaria viridis (level)” value came out at 10. In data set [2] (60 g/ha), the “effect on crop, corn (level)” value stood at 0; the “effect on crop, rice (level)” value is on record as 1 (Level 1: above 1-10% growth inhibition rate); the “effect on crop, wheat (level)” value was found to be 0.

As to `C#CCOCc1c(S(C)(=O)=O)ccc(C(=O)c2cnn(C)c2OC(=O)c2cn(C)nc2C)c1Cl` [Compound 41], in data set [1] (30 g/ha), the “weed control effect, Abutilon theophrasti (level)” value is recorded as 7 (Level 7: above 70% growth inhibition rate); the “weed control effect, Bidens pilosa (level)” value is listed as 7 (Level 7: above 70% growth inhibition rate); the “weed control effect, Digitaria sanguinalis (level)” value is on record as 8 (Level 8: above 80% growth inhibition rate); the “weed control effect, Echinochloa crus-galli (level)” value was determined as 10. Besides, in data set [1] (30 g/ha), the “weed control effect, Rorippa indica (level)” value is listed as 10 and the “weed control effect, Setaria viridis (level)” value worked out at 10. For the same compound, in data set [2] (30 g/ha), the “effect on crop, corn (level)” value stood at 0; the “effect on crop, rice (level)” value is reported as 5 (Level 5: above 50% growth inhibition rate); the “effect on crop, wheat (level)” value is 0.

As for `CCOCc1c(S(C)(=O)=O)ccc(C(=O)c2cnn(C)c2OC(=O)c2cn(C)nc2C)c1Cl` [Compound 42], in data set [1] (30 g/ha), the “weed control effect, Abutilon theophrasti (level)” value is 7 (Level 7: above 70% growth inhibition rate); the “weed control effect, Bidens pilosa (level)” value is listed as 7 (Level 7: above 70% growth inhibition rate); the “weed control effect, Digitaria sanguinalis (level)” value was 7 (Level 7: above 70% growth inhibition rate); the “weed control effect, Echinochloa crus-galli (level)” value turned out to be 10. In data set [1] (30 g/ha), the “weed control effect, Rorippa indica (level)” value is reported as 10 and the “weed control effect, Setaria viridis (level)” value was 9 (Level 9: above 90% growth inhibition rate). Also, in data set [2] (30 g/ha), the “effect on crop, corn (level)” value was found to be 0; the “effect on crop, rice (level)” value was 5 (Level 5: above 50% growth inhibition rate); the “effect on crop, wheat (level)” value was determined as 0.

As to `CC=CCOCc1c(S(C)(=O)=O)ccc(C(=O)c2cnn(C)c2OC(=O)c2cn(C)nc2C)c1Cl` [Compound 43], in data set [1] (30 g/ha), the “weed control effect, Abutilon theophrasti (level)” value was 7 (Level 7: above 70% growth inhibition rate); the “weed control effect, Bidens pilosa (level)” value was 7 (Level 7: above 70% growth inhibition rate); the “weed control effect, Digitaria sanguinalis (level)” value was 7 (Level 7: above 70% growth inhibition rate); the “weed control effect, Echinochloa crus-galli (level)” value was found to be 10. In addition, in data set [1] (30 g/ha), the “weed control effect, Rorippa indica (level)” value worked out at 10 and the “weed control effect, Setaria viridis (level)” value is listed as 9 (Level 9: above 90% growth inhibition rate). Further, in data set [2] (30 g/ha), the “effect on crop, corn (level)” value is given as 0; the “effect on crop, rice (level)” value is 3 (Level 3: above 20% growth inhibition rate); the “effect on crop, wheat (level)” value is on record as 0.

Take `Cc1nn(C)cc1C(=O)Oc1c(C(=O)c2ccc(S(C)(=O)=O)c(COCC(F)(F)F)c2Cl)cnn1C` [Compound 44]: in data set [1] (30 g/ha), the “weed control effect, Abutilon theophrasti (level)” value is listed as 7 (Level 7: above 70% growth inhibition rate); the “weed control effect, Bidens pilosa (level)” value is 7 (Level 7: above 70% growth inhibition rate); the “weed control effect, Digitaria sanguinalis (level)” value was 10; the “weed control effect, Echinochloa crus-galli (level)” value came out at 10. Also, in data set [1] (30 g/ha), the “weed control effect, Rorippa indica (level)” value was determined as 10 and the “weed control effect, Setaria viridis (level)” value was 9 (Level 9: above 90% growth inhibition rate). In data set [2] (30 g/ha), the “effect on crop, corn (level)” value is 0; the “effect on crop, rice (level)” value is 3 (Level 3: above 20% growth inhibition rate); the “effect on crop, wheat (level)” value is given as 0.

With `CCOCCOCc1c(S(C)(=O)=O)ccc(C(=O)c2cnn(C)c2OC(=O)c2cn(C)nc2C)c1Cl` [Compound 45], in data set [1] (30 g/ha), the “weed control effect, Abutilon theophrasti (level)” value is recorded as 7 (Level 7: above 70% growth inhibition rate); the “weed control effect, Bidens pilosa (level)” value is 7 (Level 7: above 70% growth inhibition rate); the “weed control effect, Digitaria sanguinalis (level)” value is listed as 7 (Level 7: above 70% growth inhibition rate); the “weed control effect, Echinochloa crus-galli (level)” value is listed as 9 (Level 9: above 90% growth inhibition rate). Further, in data set [1] (30 g/ha), the “weed control effect, Rorippa indica (level)” value is reported as 10 and the “weed control effect, Setaria viridis (level)” value is recorded as 7 (Level 7: above 70% growth inhibition rate). Also, in data set [2] (30 g/ha), the “effect on crop, corn (level)” value was found to be 0; the “effect on crop, rice (level)” value is recorded as 3 (Level 3: above 20% growth inhibition rate); the “effect on crop, wheat (level)” value stood at 0.

On to `C#CCOCc1c(S(C)(=O)=O)ccc(C(=O)c2c(C3CC3)nn(C)c2OC(=O)c2cn(C)nc2C)c1Cl` [Compound 47], for which, in data set [1] (30 g/ha), the “weed control effect, Abutilon theophrasti (level)” value was 7 (Level 7: above 70% growth inhibition rate); the “weed control effect, Bidens pilosa (level)” value is reported as 7 (Level 7: above 70% growth inhibition rate); the “weed control effect, Digitaria sanguinalis (level)” value was 7 (Level 7: above 70% growth inhibition rate); the “weed control effect, Echinochloa crus-galli (level)” value is recorded as 10. Besides, in data set [1] (30 g/ha), the “weed control effect, Rorippa indica (level)” value was found to be 10 and the “weed control effect, Setaria viridis (level)” value is 9 (Level 9: above 90% growth inhibition rate). Further, in data set [2] (30 g/ha), the “effect on crop, corn (level)” value was found to be 0; the “effect on crop, rice (level)” value was 3 (Level 3: above 20% growth inhibition rate); the “effect on crop, wheat (level)” value is listed as 0.

`Cc1nn(C)cc1C(=O)Oc1c(C(=O)c2ccc(S(C)(=O)=O)c(COCC(F)(F)C(F)F)c2Cl)c(C2CC2)nn1C` [Compound 48]: in data set [1] (30 g/ha), the “weed control effect, Abutilon theophrasti (level)” value is 7 (Level 7: above 70% growth inhibition rate); the “weed control effect, Bidens pilosa (level)” value is on record as 7 (Level 7: above 70% growth inhibition rate); the “weed control effect, Digitaria sanguinalis (level)” value is reported as 7 (Level 7: above 70% growth inhibition rate); the “weed control effect, Echinochloa crus-galli (level)” value amounted to 10. In addition, in data set [1] (30 g/ha), the “weed control effect, Rorippa indica (level)” value is 10 and the “weed control effect, Setaria viridis (level)” value is 9 (Level 9: above 90% growth inhibition rate). For the same compound, in data set [2] (30 g/ha), the “effect on crop, corn (level)” value is reported as 0; the “effect on crop, rice (level)” value is 3 (Level 3: above 20% growth inhibition rate); the “effect on crop, wheat (level)” value came to 0.
